Here are results for 4 compounds from patent US10570184B2, “GLP-1/glucagon receptor co-agonists for medical use” (Novo Nordisk A/S, priority 2014, dated 2020).

Starred links: 1 amine or outer side, 2 acyl side, 3 side chain; linkers in the order of their positions; H or OH if unused. Non-standard residues stand in square brackets, D forms with d. Residues, ends and D or L forms follow the SMILES beside them. Groups on a side chain read outwards from the residue. *: point of attachment. C18 diacid = O=C(O)CCCCCCCCCCCCCCCCC(=O)*; γGlu = O=C(O)[C@H](CCC(=O)[*:2])N[*:1]; AEEA = NCCOCCOCC(=O)O; Aib = CC(C)(N)C(=O)O

Assay [1] concerns the target T1, human GLP-1 receptor (Homo sapiens, UniProt P43220).
T1 construct: expressed in transfected cells; host or cells: membranes of BHK cells (parent BHKTS13), clone FCW467-12A
The assay can be described thus: Assay (I)(a) GLP-1 receptor activation, CRE luciferase reporter gene assay in BHK cells. The assay is classed as cell-based. To be noted: without presence of serum albumin; read-out: GLP-1R EC50 (pM) [Assay (I)(a)]. How it is done: The purpose of this example was to test the activity or potency, of the glucagon derivatives of the invention, in vitro. The in vitro potency is the measure of human GLP-1 receptor (GLP-1R) or glucagon receptor (glucagonR) activation, respectively, in a whole cell assay. In vitro potency was determined by measuring the response of human GLP-1 or glucagon receptor, respectively, in a reporter gene assay. The assay was performed in a stably transfected BHK cell line that expresses either the human GLP-1 receptor or the human glucagon receptor and contains the DNA for the cAMP response element (CRE) coupled to a promoter and the gene for firefly luciferase (CRE luciferase). […] When assay incubation was completed, the luciferase substrate (luciferin) was added and the enzyme converted luciferin to oxyluciferin and produces bioluminescence. The luminescence was measured as the readout for the assay. The cells used in this assay (clone FCW467-12A/KZ10-1) were BHK cells with BHKTS13 as a parent cell line. The cells were derived from a clone (FCW467-12A) that expresses the human GLP-1 receptor and were established by further transfection with CRE luciferase to obtain the current clone. The cells were cultured at 5% CO2 in DMEM medium with 10% FBS, 1×GlutaMAX, 1 mg/ml G418, 240 nM MTX (methotrexate) and 1% pen/strep (penicillin/streptomycin). They were aliquoted and stored in liquid nitrogen. Before each assay, an aliquot was taken up and washed three times in PBS before being suspended at the desired concentration in assay medium. For 96-well plates the suspension was made to give a final concentration of 5×10EE3 cells/well. The following chemicals were used in the assay: Pluronic F-68 (10%) (Gibco 2404), ovalbumin (Sigma A5503), DMEM w/o phenol red (Gibco 11880-028), 1 M Hepes (Gibco 15630), Glutamax 100× (Gibco 35050) and steadylite plus (PerkinElmer 6016757). Assay Medium consisted of DMEM w/o phenol red, 10 mM Hepes, 1× GlutaMAX, 2% Ovalbumin and 0.2% Pluronic F-68. Cell stocks were thawed in a 37° C. water bath. Cells were washed three times in PBS. The cells were counted and adjusted to 5×10EE3 cells/50 μl (1×10EE5 cells/ml) in Assay Medium. A 50 μl aliquot of cells was transferred to each well in the assay plate. Stocks of the test compounds and reference compounds were diluted to a concentration of […] in Assay Medium. Compounds were diluted 10-fold to give the following concentrations: 2×10EE-6 M, 2×10EE-7 M, 2×10EE-8 M; 2×10EE-9 M, 2×10EE-10 M, 2×10EE-11 M, 2×10EE-12 M and 2×10EE-13 M. For each compound a blank assay medium control was also included. A 50 μl aliquot of compound or blank was transferred from the dilution plate to the assay plate. Compounds were tested at the following final concentrations: 1×10EE-6 M, 1×10EE-7 M, 1×10EE-8 M; 1×10EE-9 M, 1×10EE-10 M, 1×10EE-11 M and 1×10EE-12 M and 1×10EE-13 M. The assay plate was incubated for 3 h in a 5% CO2 incubator at 37° C. The assay plate was removed from the incubator and allowed to stand at room temperature for 15 min. A 100 μl aliquot of steadylite plus reagent was added to each well of the assay plate (reagent is light sensitive). Each assay plate was covered with aluminum foil to protect it from light and shaken for 30 min at room temperature. Each assay plate was read in a Perkin Elmer TopCount NXT instrument. The data from the TopCount instrument was transferred to GraphPad Prism software. The software performed a non-linear regression (log(agonist) vs response-Variable slope (four parameter)). EC50 values were calculated by the software and reported in pM.

For assay [2], the target named is T1, human GLP-1 receptor. The assay can be described thus: Assay (II)(a) GLP-1 receptor binding, 125I-GLP-1 displacement SPA on BHK membranes. As to conditions: without presence of serum albumin; read-out: GLP-1R IC50 (nM) [Assay (II)(a)]. In a few lines:
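Membranes from BHK cells (clone FCW467-12A) stably expressing human GLP-1R were incubated with serially diluted compounds (8×10EE-13 to 8×10EE-7 M before addition) and [125I]-GLP-1-(7-36)NH2 with WGA SPA beads, 2 h at 30° C, pH 7.4. IC50 taken from displacement by non-linear regression. Run at ≤0.001% or 2.0% final serum albumin.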

T1 sequence (P43220 24-463): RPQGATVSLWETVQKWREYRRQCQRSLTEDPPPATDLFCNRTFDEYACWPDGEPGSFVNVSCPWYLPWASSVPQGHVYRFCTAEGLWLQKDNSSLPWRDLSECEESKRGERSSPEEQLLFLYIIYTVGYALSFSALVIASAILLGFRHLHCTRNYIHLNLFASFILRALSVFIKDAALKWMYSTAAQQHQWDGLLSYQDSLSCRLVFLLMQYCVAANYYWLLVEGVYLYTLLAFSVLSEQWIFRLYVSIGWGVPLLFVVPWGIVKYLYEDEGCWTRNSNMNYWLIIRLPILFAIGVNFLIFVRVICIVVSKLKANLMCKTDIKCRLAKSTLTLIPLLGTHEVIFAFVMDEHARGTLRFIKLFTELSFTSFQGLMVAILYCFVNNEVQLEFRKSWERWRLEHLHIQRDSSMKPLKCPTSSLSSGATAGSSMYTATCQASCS

Consider `CC[C@H](C)[C@H](NC(=O)[C@H](CC(C)C)NC(=O)[C@H](Cc1c[nH]c2ccccc12)NC(=O)[C@H](CCCCNC(=O)COCCOCCNC(=O)COCCOCCNC(=O)CC[C@H](NC(=O)CC[C@H](NC(=O)CC[C@H](NC(=O)CCCCCCCCCCCCCCCCC(=O)O)C(=O)O)C(=O)O)C(=O)O)NC(=O)[C@@H](NC(=O)[C@H](Cc1ccccc1)NC(=O)[C@H](CCC(=O)O)NC(=O)[C@H](CCCNC(=N)N)NC(=O)[C@H](C)NC(=O)[C@H](CCCNC(=N)N)NC(=O)[C@H](CCCCN)NC(=O)[C@H](C)NC(=O)[C@H](CC(=O)O)NC(=O)[C@H](CC(C)C)NC(=O)[C@H](Cc1ccc(O)cc1)NC(=O)[C@H](CCCCN)NC(=O)[C@H](CO)NC(=O)[C@H](Cc1ccc(O)cc1)NC(=O)[C@H](CC(=O)O)NC(=O)[C@H](CO)NC(=O)[C@@H](NC(=O)[C@H](Cc1ccccc1)NC(=O)[C@@H](NC(=O)CNC(=O)[C@H](CCC(N)=O)NC(=O)C(C)(C)NC(=O)[C@@H](N)Cc1c[nH]cn1)[C@@H](C)O)[C@@H](C)O)C(C)C)C(=O)N[C@@H](CO)C(=O)N[C@H](C(N)=O)[C@@H](C)O` [Chem. 2, N^ε24-[2-[2-[2-[[2-[2-[2-[[(4S)-4-carboxy-4-[[(4S)-4-carboxy-4-[[(4S)-4-carboxy-4-(17-carboxyheptadecanoylamino)butanoyl]amino]butanoyl]amino]butanoyl]amino]ethoxy]ethoxy]acetyl]amino]ethoxy]ethoxy]acetyl]-[Aib2,Ala16,Lys17,Arg20,Glu21,Lys24,Ile27,Ser28]-Glucagon amide] (H-H[Aib]QGTFTSDYSKYLDAKRAREFVK([AEEA-AEEA-γGlu-γGlu-γGlu-C18 diacid])WLIST-NH2; N-terminus assumed), for which, in assay [1], the EC50 is 2 pM. The 50% inhibitory concentration (IC50) in assay [2] came to 0.3 nM.

As for `CC[C@H](C)[C@H](NC(=O)[C@H](CC(C)C)NC(=O)[C@H](Cc1c[nH]c2ccccc12)NC(=O)[C@H](CCC(N)=O)NC(=O)[C@@H](NC(=O)[C@H](Cc1ccccc1)NC(=O)[C@H](CCC(=O)O)NC(=O)[C@H](CCCNC(=N)N)NC(=O)[C@H](C)NC(=O)[C@H](CCCNC(=N)N)NC(=O)[C@H](CCCNC(=N)N)NC(=O)[C@H](C)NC(=O)[C@H](CC(=O)O)NC(=O)[C@H](CC(C)C)NC(=O)[C@H](Cc1ccc(O)cc1)NC(=O)[C@H](CCCCN)NC(=O)[C@H](CO)NC(=O)[C@H](CC(C)C)NC(=O)[C@H](CC(=O)O)NC(=O)[C@H](CO)NC(=O)[C@@H](NC(=O)[C@H](Cc1ccccc1)NC(=O)[C@@H](NC(=O)CNC(=O)[C@H](CCC(N)=O)NC(=O)C(C)(C)NC(=O)[C@@H](N)Cc1c[nH]cn1)[C@@H](C)O)[C@@H](C)O)C(C)C)C(=O)N[C@@H](CCCCNC(=O)COCCOCCNC(=O)COCCOCCNC(=O)CC[C@H](NC(=O)CC[C@H](NC(=O)CC[C@H](NC(=O)CCCCCCCCCCCCCCCCC(=O)O)C(=O)O)C(=O)O)C(=O)O)C(=O)N[C@H](C(N)=O)[C@@H](C)O` [Chem. 6, N^ε28-[2-[2-[2-[[2-[2-[2-[[(4S)-4-carboxy-4-[[(4S)-4-carboxy-4-[[(4S)-4-carboxy-4-(17-carboxyheptadecanoylamino)butanoyl]amino]butanoyl]amino]butanoyl]amino]ethoxy]ethoxy]acetyl]amino]ethoxy]ethoxy]acetyl]-[Aib2,Leu10,Ala16,Arg20,Glu21,Ile27,Lys28]-Glucagon amide] (H-H[Aib]QGTFTSDLSKYLDARRAREFVQWLIK([AEEA-AEEA-γGlu-γGlu-γGlu-C18 diacid])T-NH2; N-terminus assumed), in assay [1], the EC50 was 5 pM. In addition, the IC50 in assay [2] was 0.1 nM.

As to `CC[C@H](C)[C@H](NC(=O)[C@H](CC(C)C)NC(=O)[C@H](Cc1c[nH]c2ccccc12)NC(=O)[C@H](CCC(N)=O)NC(=O)[C@@H](NC(=O)[C@H](Cc1ccccc1)NC(=O)[C@H](CC(=O)O)NC(=O)[C@H](CCC(N)=O)NC(=O)[C@H](C)NC(=O)[C@H](CCCNC(=N)N)NC(=O)[C@H](CCCNC(=N)N)NC(=O)[C@H](CO)NC(=O)[C@H](CCC(=O)O)NC(=O)[C@H](CC(C)C)NC(=O)[C@H](Cc1ccc(O)cc1)NC(=O)[C@H](CCCCN)NC(=O)[C@H](CO)NC(=O)[C@H](CC(C)C)NC(=O)[C@H](CC(=O)O)NC(=O)[C@H](CO)NC(=O)[C@@H](NC(=O)[C@H](Cc1ccccc1)NC(=O)[C@@H](NC(=O)CNC(=O)[C@H](CCC(N)=O)NC(=O)C(C)(C)NC(=O)[C@@H](N)Cc1c[nH]cn1)[C@@H](C)O)[C@@H](C)O)C(C)C)C(=O)N[C@@H](CCCCNC(=O)COCCOCCNC(=O)COCCOCCNC(=O)CC[C@H](NC(=O)CC[C@H](NC(=O)CC[C@H](NC(=O)CCCCCCCCCCCCCCCCC(=O)O)C(=O)O)C(=O)O)C(=O)O)C(=O)N[C@H](C(N)=O)[C@@H](C)O` [Chem. 8, N^ε28-[2-[2-[2-[[2-[2-[2-[[(4S)-4-carboxy-4-[[(4S)-4-carboxy-4-[[(4S)-4-carboxy-4-(17-carboxyheptadecanoylamino)butanoyl]amino]butanoyl]amino]butanoyl]amino]ethoxy]ethoxy]acetyl]amino]ethoxy]ethoxy]acetyl]-[Aib2,Leu10,Glu15,Ile27,Lys28]-Glucagon amide] (H-H[Aib]QGTFTSDLSKYLESRRAQDFVQWLIK([AEEA-AEEA-γGlu-γGlu-γGlu-C18 diacid])T-NH2; N-terminus assumed), the EC50 in assay [1] turned out to be 7 pM. For the same compound, the IC50 in assay [2] was 0.1 nM.

Turning to `CC[C@H](C)[C@H](NC(=O)[C@H](CC(C)C)NC(=O)[C@H](Cc1c[nH]c2ccccc12)NC(=O)[C@H](CCC(N)=O)NC(=O)[C@@H](NC(=O)[C@H](Cc1ccccc1)NC(=O)[C@H](CC(=O)O)NC(=O)[C@H](CCCNC(=N)N)NC(=O)[C@H](C)NC(=O)[C@H](CCCNC(=N)N)NC(=O)[C@H](CCCNC(=N)N)NC(=O)[C@H](CO)NC(=O)[C@H](CCC(=O)O)NC(=O)[C@H](CC(C)C)NC(=O)[C@H](Cc1ccc(O)cc1)NC(=O)[C@H](CCCCN)NC(=O)[C@H](CO)NC(=O)[C@H](CC(C)C)NC(=O)[C@H](CC(=O)O)NC(=O)[C@H](CO)NC(=O)[C@@H](NC(=O)[C@H](Cc1ccccc1)NC(=O)[C@@H](NC(=O)CNC(=O)[C@H](CCC(N)=O)NC(=O)C(C)(C)NC(=O)[C@@H](N)Cc1c[nH]cn1)[C@@H](C)O)[C@@H](C)O)C(C)C)C(=O)N[C@@H](CCCCNC(=O)COCCOCCNC(=O)COCCOCCNC(=O)CC[C@H](NC(=O)CC[C@H](NC(=O)CC[C@H](NC(=O)CCCCCCCCCCCCCCCCC(=O)O)C(=O)O)C(=O)O)C(=O)O)C(=O)N[C@H](C(N)=O)[C@@H](C)O` [Chem. 3, N^ε28-[2-[2-[2-[[2-[2-[2-[[(4S)-4-carboxy-4-[[(4S)-4-carboxy-4-[[(4S)-4-carboxy-4-(17-carboxyheptadecanoylamino)butanoyl]amino]butanoyl]amino]butanoyl]amino]ethoxy]ethoxy]acetyl]amino]ethoxy]ethoxy]acetyl]-[Aib2,Leu10,Glu15,Arg20,Ile27,Lys28]-Glucagon amide] (H-H[Aib]QGTFTSDLSKYLESRRARDFVQWLIK([AEEA-AEEA-γGlu-γGlu-γGlu-C18 diacid])T-NH2; N-terminus assumed), the EC50 in assay [1] amounted to 2 pM. Also, the IC50 in assay [2] turned out to be 0.1 nM.
